According to ChEMBL document CHEMBL5260832, “Hepatoprotective natural triterpenoids” (Eur J Med Chem, 2018):

Columns and labels:
[1] = Hepatotoxicity in D-GaIN induced in Wistar rat model hepatocyte assessed as reduction in PLA2 level; type: toxicity, cell-based
[2] = tested on: Hepatocyte; test: Hepatoprotective activity against D-GaIN induced liver injury in rat hepatocyte assessed as decrease in ALT level at 30 to 120 uM; type: functional; conditions: dose 30-120 µM
[3] = tested on: Hepatocyte; test: Hepatoprotective activity against D-GaIN induced liver injury in rat hepatocyte assessed as decrease in LDH level at 30 to 120 uM; type: functional; conditions: dose 30-120 µM
[4] = organism: Mus musculus; test: Hepatoprotective activity against D-GaIN/LPS induced liver injury mouse model assessed as increase in sAST relative to control; type: functional
[5] = organism: Mus musculus; test: Hepatoprotective activity against D-GaIN/LPS induced liver injury mouse model assessed as increase in sALT relative to control; type: functional
[6] = Hepatotoxicity in rat hepatocyte assessed as change in GSH level at 30 microg/mL relative to control; type: toxicity, cell-based; conditions: hepatocytes, at 30 µg/mL
[7] = Hepatoprotective activity against D-Galactosamine-induced toxicity in rat WB-F344 cell assessed as cell damage at 10 uM by MTT colorimetric assay relative to control; type: functional
[8] = tested on: Hepatocyte; test: Hepatoprotective activity against D-GaIN/TNFalpha induced cell death in mouse hepatocytes assessed as reduction in TNF alpha level; type: functional, cell-based
[9] = Hepatotoxicity in D-GaIN induced Wistar rat assessed as change in induction of TAT level for 10 days relative to control; type: toxicity; parameters: concentration or dose not given beside the values; conditions: in vivo, 240 h, time 10 day
[10] = tested on: Hepatocyte; test: Hepatoprotective activity against D-GaIN-induced toxicity in mouse hepatocyte relative to control; type: functional, cell-based
[11] = tested on: Hepatocyte; test: Hepatoprotective activity against D-GaIN/TNFalpha-induced cell death in mouse hepatocyte at 100 uM; type: functional, cell-based
[12] = tested on: Hepatocyte; test: Hepatoprotective activity against D-GaIN/TNFalpha -induced cell death in mouse hepatocyte assessed as inhibition of cell death; type: functional, cell-based; parameters: Activity: concentration or dose not given beside the values

CC(=O)O[C@@H]1C[C@](C)(C(=O)O)C[C@H]2C3=CC(=O)[C@@H]4[C@@]5(C)CC[C@H](O[C@@H]6O[C@H](C(=O)O)[C@@H](O)[C@H](O)[C@H]6O[C@@H]6O[C@H](C(=O)O)[C@@H](O)[C@H](O)[C@H]6O)C(C)(C)[C@@H]5CC[C@@]4(C)[C@]3(C)CC[C@@]12C
IC50 [1]: 27.1 µM
Activity [2]: 16.5 U/L
Activity [3]: 242.8 U/L

CC(C)=CCC[C@](C)(O[C@@H]1O[C@H](CO)[C@@H](O)[C@H](O)[C@H]1O)[C@H]1CC[C@]2(C)[C@@H]1[C@H](O)C[C@@H]1[C@@]3(C)CC[C@H](O)C(C)(C)[C@@H]3[C@@H](O[C@@H]3O[C@H](CO)[C@@H](O)[C@H](O)[C@H]3O)C[C@]12C [GINSENOSIDE RG1]
Activity [4]: 12%
Activity [5]: 30%

C[C@H]1O[C@@H](O[C@H]2CC[C@@]3(C)[C@@H](CC[C@]4(C)[C@@H]3C(=O)C=C3[C@@H]5CC(C)(C)CC[C@]5(CO)[C@@H](O)C[C@]34C)[C@]2(C)CO)[C@H](O)[C@@H](O[C@@H]2O[C@H](CO)[C@@H](O)[C@H](O)[C@H]2O)[C@H]1O
Activity [6]: 90.9%

CC(C)=CCC[C@@H](C)[C@H]1CC[C@@]2(C)C3=C(CC[C@]12C)[C@@]1(C)CC[C@H](O)C(C)(C)[C@@H]1CC3 [LANOSTEROL]
Activity [7]: 74.8%

CC(C)=C(C)[C@H]1C[C@@H]([C@H]2CC[C@@]3(C)C4=C(CC[C@]23C)[C@@]2(C)CC[C@H](O)C(C)(C)[C@@H]2CC4)C(=O)O1
Activity [7]: 71.9%

C[C@]1(C(=O)O)CC[C@]2(C)CC[C@]3(C)C(=CC(=O)[C@@H]4[C@@]5(C)CC[C@H](O[C@@H]6O[C@H](C(=O)O)[C@@H](O)[C@H](O)[C@H]6O[C@@H]6O[C@H](C(=O)O)[C@@H](O)[C@H](O)[C@H]6O)[C@](C)(CO)[C@@H]5CC[C@]43C)[C@H]2C1
IC50 [1]: 3.6 µM
Activity [2]: 17.1 U/L
Activity [3]: 253.5 U/L

CC1(C)[C@@H](O[C@H]2O[C@H](C(=O)O)[C@@H](O)[C@H](O)[C@H]2O[C@@H]2O[C@H](C(=O)O)[C@@H](O)[C@H](O)[C@H]2O)CC[C@]2(C)[C@H]3C(=O)C=C4[C@@H]5C[C@@](C)(C(=O)O)CC[C@]5(C)CC[C@@]4(C)[C@]3(C)CC[C@@H]12 [GLYCYRRHIZIN]
IC50 [1]: 9.3 µM
Activity [2]: 17.1 U/L
Activity [3]: 253.5 U/L

CC(C)=CCC[C@@H](C(=O)O)[C@H]1CC[C@@]2(C)C3=C(CC[C@]12C)[C@@]1(C)CC[C@H](O)C(C)(C)[C@@H]1CC3 [TRAMETENOLIC ACID]
Activity [7]: 75%

C[C@H]1O[C@@H](O[C@H]2CC[C@@]3(C)[C@@H](CC[C@]4(C)[C@@H]3[C@H](O)C[C@@H]3C5=CC(C)(C)CC[C@]5(CO)[C@@H](O)C[C@]34C)[C@]2(C)CO)[C@H](O)[C@@H](O[C@@H]2O[C@H](CO)[C@@H](O)[C@H](O)[C@H]2O)[C@H]1O
Activity [6]: 64.7%

CC(C)C(O)(CO)CC[C@@H](C)[C@H]1CC[C@@]2(C)[C@@H]3CC[C@H]4[C@H](C(=O)O)[C@@H](O)C[C@H](O)[C@@]45C[C@@]35CC[C@]12C (stereo partly specified)
IC50 [8]: 67.6 µM

C=C(C)[C@H](O)CC[C@@H](C)[C@H]1CC[C@@]2(C)[C@@H]3CC[C@H]4[C@](C)(C(=O)O)[C@@H](O)C[C@H](O)[C@@]45C[C@@]35CC[C@]12C
IC50 [8]: 34.3 µM

CC1(C)CC[C@@]2(C)[C@H](C1)C1=CC[C@@H]3[C@@]4(C)CC[C@@H](O)C(C)(C)[C@@H]4CC[C@@]3(C)[C@]1(C)C[C@@H]2O
Activity [9]: 5.3%

C=C(C)C(=O)CC[C@@H](C=O)[C@H]1CC[C@@]2(C)[C@@H]3CC[C@H]4[C@](C)(C(=O)OC)[C@@H](O)C[C@H](O)[C@@]45C[C@@]35CC[C@]12C
IC50 [8]: 89.3 µM

C=C(C)[C@@H](O)CC[C@@H](CO)[C@H]1CC[C@@]2(C)[C@@H]3CC[C@H]4[C@](C)(C(=O)OC)[C@@H](O)C[C@H](O)[C@@]45C[C@@]35CC[C@]12C [METHYL QUADRANGULARATE]
IC50 [8]: 337 µM

COC(=O)[C@]1(C)[C@@H](O)C[C@H](O)[C@]23C[C@]24CC[C@]2(C)[C@@H]([C@H](C=O)C/C=C/C(C)(C)O)CC[C@@]2(C)[C@@H]4CC[C@@H]13
IC50 [8]: 45.7 µM

CC1(C)[C@@H](O[C@@H]2O[C@H](C(=O)O)[C@@H](O)[C@H](O)[C@H]2O[C@@H]2O[C@H](C(=O)O)[C@@H](O)[C@H](O)[C@H]2O)CC[C@]2(C)[C@H]3C(=O)C=C4[C@@H]5C[C@](C)(C(=O)O)CC[C@]5(C)CC[C@@]4(C)[C@]3(C)CC[C@@H]12
IC50 [1]: 16.9 µM
Activity [2]: 17.1 U/L
Activity [3]: 253.5 U/L

C[C@H]1O[C@@H](O[C@H]2CC[C@@]3(C)[C@@H](CC[C@]4(C)[C@@H]3[C@H](O)C=C3[C@@H]5CC(C)(C)CC[C@]5(CO)[C@@H](O)C[C@]34C)[C@]2(C)CO)[C@H](O)[C@@H](O[C@@H]2O[C@H](CO)[C@@H](O)[C@H](O)[C@H]2O)[C@H]1O
Activity [6]: 46.5%

C[C@@H]1CC[C@]2(C(=O)O)CC[C@]3(C)C(=CC[C@@H]4[C@@]5(C)C[C@@H](O)[C@H](O)C(C)(C)[C@@H]5CC[C@]43C)[C@@H]2[C@]1(C)O [TOMENTIC ACID]
IC50 [10]: 9.5 µM

CC1=C2C3=CC[C@@H]4[C@@]5(C)C[C@@H](O)[C@H](O)[C@@](C)(CO)[C@@H]5CC[C@@]4(C)[C@]3(C)CC[C@@]2(C(=O)O[C@@H]2O[C@H](CO)[C@@H](O)[C@H](O)[C@H]2O)CC[C@H]1C
IC50 [11]: 34.6 µM

CO[C@@H]1C=C2[C@@H]3CC(C)(C)CC[C@]3(CO)[C@@H](O)C[C@@]2(C)[C@]2(C)CC[C@H]3C(C)(C)[C@@H](O[C@@H]4O[C@H](C)[C@H](O)[C@H](O[C@@H]5O[C@H](CO)[C@@H](O)[C@H](O)[C@H]5O)[C@H]4O)CC[C@]3(C)[C@@H]12
Activity [6]: 75%

CC(C)=CC[C@@H](O)[C@@H](C)[C@H]1CC[C@@]2(C)C3=C(C(=O)C[C@]12C)[C@@]1(C)CC[C@H](O)C(C)(C)[C@@H]1CC3
Activity [7]: 81.2%

CC(C)=CC[C@H](O)[C@@H](C)[C@H]1CC[C@@]2(C)C3=C(CC[C@]12C)[C@@]1(C)CC[C@H](O)C(C)(C)[C@@H]1CC3
Activity [7]: 56.3%

C[C@]1(C(=O)O)CC[C@]2(C)CC[C@]3(C)C(=CC(=O)[C@@H]4[C@@]5(C)CC[C@H](O[C@@H]6O[C@H](C(=O)O)[C@@H](O)[C@H](O)[C@H]6O[C@@H]6O[C@H](C(=O)O)[C@@H](O)[C@H](O)[C@H]6O)[C@](C)(CO)[C@@H]5CC[C@]43C)[C@@H]2C1
IC50 [1]: 6.9 µM
Activity [2]: 17.1 U/L
Activity [3]: 253.5 U/L

C[C@@H]1C(=O)[C@]2(C)CC[C@@]34C[C@@]56OC(=O)C[C@@H]5OC(C)(C)[C@H]6C[C@@H](O)[C@@H]3C(=O)[C@]3(O[C@@H]5[C@@H](OC(=O)[C@@H]5C)[C@H]1[C@@H]32)O4
Activity [12]: 37.6%

C[C@H]1C(=O)O[C@@H]2[C@H]1O[C@@]13O[C@]4(CC[C@@]5(C)C(=O)[C@@](C)(O)[C@]2(O)[C@@H]15)C[C@@]12OC(=O)C[C@@H]1OC(C)(C)[C@H]2C[C@@H](O)[C@@H]4C3=O
Activity [12]: 37.6%
